From patent publication US20190151341A1, “APPLICATION OF TENVERMECTIN FOR PREVENTING AND TREATING PARASITE INFECTION” (ZHEJIANG HISUN PHARMACEUTICAL CO., LTD., priority 2016, published 2019)

Tests used:
Type in all cases: in vivo
[1] = system: swine nematode (nematodes in the digestive tract); assay: Repelling swine nematode in naturally infected pigs (fecal egg count, McMaster's method); settings: 1% injection 0.2 mg/kg bw s.c.
Excerpt: (§1) Test agents: 1% ivermectin injection, 1% tenvermectin A injection, and 1% tenvermectin B injection as obtained in Example 1.
(§2) Test animals and grouping: pigs cultured in the same farm were selected, and 40 pigs naturally infected with nematodes in the digestive tract were selected for testing through fecal examination. The average weight of the test pigs was 30-50 kg. Forty pigs were randomly divided into 4 groups, 10 for each group. The first group was the ivermectin control group, the second group was the tenvermectin A group, and the third group was the tenvermectin B group. All the medicated groups were injected subcutaneously in the neck according to 0.2 mg/kg·bw. The forth group was a blank group and was not administered.
(§3) 1) The feces of the pigs in each group were collected and examined one by one a day before administration, and worm eggs were counted by the McMaster's method. The number of eggs per gram of feces (EPG) was counted and the condition of Haematopinus on the body surface was observed.
(§4) 2) 1, 2, 3 and 4 weeks after administration, the feces of the pigs in each group were examined by the McMaster's method, and the EPG was counted and the changes of Haematopinus on the body surface were observed.
3) The negative conversion rates and egg reduction rates of the test pigs were calculated by a conventional method to assess the efficacy of repelling swine nematode.

swine Haematopinus = assay: Killing effect on swine Haematopinus on the body surface; settings: pigs, 1% injection 0.2 mg/kg bw s.c., until the 7th day and in the following 3 weeks
Excerpt: as §1, §2, §3, §4
4) The killing effects of swine Haematopinus of the agents were assessed according to the survival of swine Haematopinus on the 7th day after administration.

[2] = system: digestive tract nematodes; assay: Repelling nematode in digestive track of sheep (fecal egg count); settings: for Number of sheep negatively conversed: sheep (20 per group); for Number of sheep negatively conversed / Egg reduction rate (%) / Negative conversion rate (%): 1% injection 0.2 mg/kg bw s.c.; for Number of sheep negatively conversed / Egg reduction rate (%) / Negative conversion rate (%) / EPG after administration: 9th day after administration; for Egg reduction rate (%) / Negative conversion rate (%) / EPG after administration / EPG before administration: sheep; for EPG after administration / EPG before administration: eggs per gram of feces; for EPG after administration: 0.2 mg/kg bw s.c.; for EPG before administration: baseline a day before administration
Excerpt: as §1
Test animals and grouping: sheep grazed under the same condition were selected, and 80 sheep of 0.8-2.0 years old naturally infected with digestive tract nematodes were selected through fecal examination. The average weight of the test sheep was 30 kg. The 80 sheep were randomly divided into 4 groups, 20 heads for each group. The first group was the ivermectin control group, the second group was the tenvermectin A group, and the third group was the tenvermectin B group. All the medicated groups were injected subcutaneously in the neck according to 0.2 mg/kg·bw. The fourth group was a blank group and was not medicated.
1) The feces of the sheep in each group were collected and examined one by one a day before administration, and the worm eggs were counted by the McMaster's method, and the number of eggs per gram of feces (EPG) was counted.
2) On the 9th day after administration, the sheep of each group were subjected to a fecal examination by McMaster's method, and EPG was counted.
3) The egg negative conversion rates and egg reduction rates were calculated according to a conventional method to assess the efficacy.

Sarcoptes mites = assay: Treatment of Sarcoptes mites of sheep (skin scrapings, live mites); settings: 1% injection 0.2 mg/kg bw s.c.; for Negative conversion number: sheep (10 per group); for Negative conversion rate (%): sheep
Excerpt: Test agents: 1% ivermectin injection, 1% tenvermectin A injection and 1% tenvermectin B injection as obtained in Example 1.
Test animals and grouping: sheep grazed under the same conditions were selected. Upon parasitological examination, 40 sheep which had been infected with sheep Sarcoptes mites were selected. The 40 sheep were randomly divided into 4 groups, 10 heads for each group. The first group was the ivermectin control group, the second group was the tenvermectin A group, and the third group was the tenvermectin B group. All the medicated groups were injected subcutaneously in the neck according to 0.2 mg/kg·bw. The fourth group was a blank group and was not medicated.
Test methods: the changes of clinical symptoms were observed. The skin of sheep was scratched using a surgical blade with glycerin at the junction of the affected part and the healthy skin of the diseased sheep until the skin slightly bled. The skin scraps were taken then were placed in a dish and brought back to the laboratory. Then the skin scraps were placed on a slide, a drop of aqueous solution of 50% glycerol was added, and a cover slip was covered, and then the skin scraps were checked under a low magnification microscope. It was confirmed to be positive if live Sarcoptes mites were observed. Samples were taken before administration and at 1, 2, 3 and 4 weeks after administration to be examined. The samples were examined under a microscope, based on whether live mites were observed, the samples can be determined to be positive as long as one live mite was observed. Changes of clinical symptoms were observed as references.

[3] = system: allogynogenetic crucian carp; assay: Toxicity to allogynogenetic crucian carp, semi-static method, 96 hours; settings: allogynogenetic crucian carp
Excerpt: Test fish and water: allogynogenetic crucian carp was purchased from Taowang Farm in Jiaojiang District, Taizhou City, with a body length of (9.60±0.52) cm and a body weight of (28.22±3.44) g. The healthy and vigorous fish with the same size were selected and temporarily raised in an indoor aquarium. They were domesticated for 7 days indoors before the test. The natural mortality rate was zero.
99.4% Tenvermectin A (the mass content of tenvermectin B was 0.02%) (Zhejiang Hisun Pharmaceutical Co., Ltd.);
Tenvermectin (the mass ratio of tenvermectin A/tenvermectin B was 95/5) (Zhejiang Hisun Pharmaceutical Co., Ltd.);
Tenvermectin (the mass ratio of tenvermectin A/tenvermectin B was 90/10) (Zhejiang Hisun Pharmaceutical Co., Ltd.);
Tenvermectin (the mass ratio of tenvermectin A/tenvermectin B was 85/15) (Zhejiang Hisun Pharmaceutical Co., Ltd.);
99.1% Tenvermectin B (the mass content of tenvermectin A was 0.51%) (Zhejiang Hisun Pharmaceutical Co., Ltd.);
92% Avermectin (Zhejiang Qianjiang Biochemical Co., Ltd.);
96% Ivermectin (Zhejiang Hisun Pharmaceutical Co., Ltd.);
90% Methylamino avermectin benzoate (Emamectin benzoate) (Zhejiang Shenghua Biok Biotechnology Co., Ltd.).
Method: semi-static method. […]

Structure (SMILES) | Egg reduction rate (%) ([1]; 1st week after administration) | Negative conversion rate (%) ([1]; 1st week after administration) | Egg reduction rate (%) ([1]; 2nd week after administration) | Negative conversion rate (%) ([1]; 2nd week after administration) | Egg reduction rate (%) ([1]; 3rd week after administration) | Negative conversion rate (%) ([1]; 3rd week after administration) | Egg reduction rate (%) ([1]; 4th week after administration) | Negative conversion rate (%) ([1]; 4th week after administration) | active Haematopinus observed on the body surface (swine Haematopinus) | Number of sheep negatively conversed [2] | Egg reduction rate (%) [2] [%] | Negative conversion rate (%) [2] [%] | EPG after administration [2] | EPG before administration [2] | Negative conversion number (Sarcoptes mites; 1st week) | Negative conversion number (Sarcoptes mites; 2nd week) | Negative conversion number (Sarcoptes mites; 3rd week) | Negative conversion number (Sarcoptes mites; 4th week) | Negative conversion rate (%) (Sarcoptes mites; 1st week) | Negative conversion rate (%) (Sarcoptes mites; 2nd week) | also measured
COC1CC(OC2C(C)OC(OC3C(C)=CCC4CC(CC5(CCC(C)C(C)O5)O4)OC(=O)C4C=C(C)C(O)C5OCC(=CC=CC3C)C45O)CC2OC)OC(C)C1O (centres unmarked) [Tenvermectin A, tenvermectin A] | 79.6 | 70 | 89.5 | 80 | 98.6 | 90 | 78.8 | 70 | no active Haematopinus was found | 20 | 100 | 100 | 0 | 11600 | 8 | 9 | 10 | 10 | 80 | 90 | Negative conversion rate (%) (Sarcoptes mites; 3rd week): 100%; Negative conversion rate (%) (Sarcoptes mites; 4th week): 100%; Survival condition (survival rates/%) ([3]; 0.5 ppm, 8 h): 100%; Survival condition (survival rates/%) ([3]; 0.5 ppm, 24 h): 100%; Survival condition (survival rates/%) ([3]; 0.5 ppm, 48 h): 100%; Survival condition (survival rates/%) ([3]; 0.5 ppm, 72 h): 100%; Survival condition (survival rates/%) ([3]; 0.5 ppm, 96 h): 100%; Survival condition (survival rates/%) ([3]; 1.0 ppm, 8 h): 100%; Survival condition (survival rates/%) ([3]; 1.0 ppm, 24 h): 100%; Survival condition (survival rates/%) ([3]; 1.0 ppm, 48 h): 100%; Survival condition (survival rates/%) ([3]; 1.0 ppm, 72 h): 100%; Survival condition (survival rates/%) ([3]; 1.0 ppm, 96 h): 100%; Survival condition (survival rates/%) ([3]; 2.0 ppm, 8 h): 100%; Survival condition (survival rates/%) ([3]; 2.0 ppm, 24 h): 100%; Survival condition (survival rates/%) ([3]; 2.0 ppm, 48 h): 100%; Survival condition (survival rates/%) ([3]; 2.0 ppm, 72 h): 100%; Survival condition (survival rates/%) ([3]; 2.0 ppm, 96 h): 100%; toxicity grade according to LC50 ([3]; 96-hour LC50): low toxic
CC[C@H]1O[C@]2(CC[C@@H]1C)C[C@@H]1C[C@@H](C/C=C(\C)[C@@H](O[C@H]3C[C@H](OC)[C@@H](O[C@H]4C[C@H](OC)[C@@H](O)[C@H](C)O4)[C@H](C)O3)[C@@H](C)/C=C/C=C3\CO[C@@H]4[C@H](O)C(C)=C[C@@H](C(=O)O1)[C@]34O)O2 [Tenvermectin B, tenvermectin B] | 85.3 | 80 | 100 | 100 | 100 | 100 | 95.8 | 90 | no active Haematopinus was found | 20 | 100 | 100 | 0 | 12200 | 9 | 10 | 10 | 10 | 90 | 100 | Negative conversion rate (%) (Sarcoptes mites; 3rd week): 100%; Negative conversion rate (%) (Sarcoptes mites; 4th week): 100%; Survival condition (survival rates/%) ([3]; 0.5 ppm, 8 h): 100%; Survival condition (survival rates/%) ([3]; 0.5 ppm, 24 h): 80%; Survival condition (survival rates/%) ([3]; 0.5 ppm, 48 h): 33%; Survival condition (survival rates/%) ([3]; 0.5 ppm, 72 h): 0%; Survival condition (survival rates/%) ([3]; 1.0 ppm, 8 h): 75%; Survival condition (survival rates/%) ([3]; 1.0 ppm, 24 h): 3%; Survival condition (survival rates/%) ([3]; 2.0 ppm, 8 h): 20%; Survival condition (survival rates/%) ([3]; 2.0 ppm, 24 h): 0%
